Assay results taken from patent US4476120A, “Thiolic derivatives of erythromycin having therapeutic activity, and pharmaceutical compositions containing them” (Sigma Tau Indistrie Farmaceutiche Riunites, p.A, priority 1982, dated 1984).
Values after ≈ are worked out from the molar mass of the structure shown. Where two headings read alike, the source gives them in different places.

Legend:
[1] = test system: D. pneumoniae SS 23; type: cell-based; settings: Brain Heart Infusion, estolate and RV11-RV15 previously hydrolized, unit assumed
[2] = Hematic levels in the healthy volunteer; type: in vivo, healthy volunteers; settings: oral, 500 mg of erythromycin, average
Text: For the dosing, the microbiological method using a B. subtilis strain was adopted.

[3] = test system: E. coli SS 04; type: cell-based; settings: Brain Heart Infusion, estolate and RV11-RV15 previously hydrolized, unit assumed
[4] = test system: B. subtilis SS 127; type: cell-based; settings: Brain Heart Infusion, estolate and RV11-RV15 previously hydrolized, unit assumed
[5] = test system: D. pneumoniae SS 23; test: Experimental infection induced by D. pneumoniae SS 23; type: in vivo, Swiss white mice; settings: os; D. pneumoniae SS 23; mg/kg of erythromycin; survival after 7 days; 10080 min
Protocol: Swiss white mice of 20 g body weight were used, infected by parenteral administration of lethal amounts of pathogenic […] of Staph. aureus SS 07 and D. pneumoniae SS 23.
The antibiotics were administered at the time of injecting the infecting germ and 6 and 24 hours later. On the basis of the survival after 7 days, the ED50 values were determined, as reported in the following table II and III, wherein the reliability limits are indicated in brackets.

[6] = test system: Citrobacter SS 09; type: cell-based; settings: Brain Heart Infusion, estolate and RV11-RV15 previously hydrolized, unit assumed
[7] = test system: Pr. mirabilis SS 09; type: cell-based; settings: Brain Heart Infusion, estolate and RV11-RV15 previously hydrolized, unit assumed
[8] = test system: B. anthranis SS 08; type: cell-based; settings: Brain Heart Infusion, estolate and RV11-RV15 previously hydrolized, unit assumed
[9] = test system: Kl. aerogenes SS 71; type: cell-based; settings: Brain Heart Infusion, estolate and RV11-RV15 previously hydrolized, unit assumed
[10] = test system: C. albicans SS 04; type: cell-based; settings: Brain Heart Infusion, estolate and RV11-RV15 previously hydrolized, unit assumed
[11] = test system: S. infantis SS 08; type: cell-based; settings: Brain Heart Infusion, estolate and RV11-RV15 previously hydrolized, unit assumed
[12] = test system: H. pertussis SS 03; type: cell-based; settings: Brain Heart Infusion, estolate and RV11-RV15 previously hydrolized, unit assumed
[13] = test system: S. lutea ATCC 9341; type: cell-based; settings: Brain Heart Infusion, estolate and RV11-RV15 previously hydrolized, unit assumed
[14] = test system: Staph. albus SS 03; type: cell-based; settings: Brain Heart Infusion, estolate and RV11-RV15 previously hydrolized, unit assumed
[15] = test system: Staph. aureus SS 09; type: cell-based; settings: Brain Heart Infusion, estolate and RV11-RV15 previously hydrolized, unit assumed
[16] = in vivo; for Hematic levels in the rat: po, 100 mg/kg
[17] = test system: E. coli SS 05; type: cell-based; settings: Brain Heart Infusion, estolate and RV11-RV15 previously hydrolized, unit assumed
[18] = test system: Strept. faecalis SS 19; type: cell-based; settings: Brain Heart Infusion, estolate and RV11-RV15 previously hydrolized, unit assumed
[19] = test system: Citrobacter SS 05; type: cell-based; settings: Brain Heart Infusion, estolate and RV11-RV15 previously hydrolized, unit assumed
[20] = test system: S. heidelberg SS 18; type: cell-based; settings: Brain Heart Infusion, estolate and RV11-RV15 previously hydrolized, unit assumed
[21] = test system: B. cereus ATCC 11778; type: cell-based; settings: Brain Heart Infusion, estolate and RV11-RV15 previously hydrolized, unit assumed
[22] = test system: Br. abortus SS 7; type: cell-based; settings: Brain Heart Infusion, estolate and RV11-RV15 previously hydrolized, unit assumed
[23] = test system: Ps. aeruginosa SS 10; type: cell-based; settings: Brain Heart Infusion, estolate and RV11-RV15 previously hydrolized, unit assumed
[24] = test system: B. anthranis SS 09; type: cell-based; settings: B. anthranis SS 09 (14 bis); Brain Heart Infusion; estolate and RV11-RV15 previously hydrolized; unit assumed
[25] = test system: B. subtilis ATCC 6633; type: cell-based; settings: Brain Heart Infusion, estolate and RV11-RV15 previously hydrolized, unit assumed
[26] = test system: C. diphtheriae SS 19; type: cell-based; settings: Brain Heart Infusion, estolate and RV11-RV15 previously hydrolized, unit assumed
[27] = test system: Br. melitensis SS 19; type: cell-based; settings: unit assumed
[28] = test system: E. coli SS 06; type: cell-based; settings: Brain Heart Infusion, estolate and RV11-RV15 previously hydrolized, unit assumed
[29] = test system: E. coli SS 07; type: cell-based; settings: Brain Heart Infusion, estolate and RV11-RV15 previously hydrolized, unit assumed
[30] = test system: Strept. haemolyticus SS 18; type: cell-based; settings: Brain Heart Infusion, estolate and RV11-RV15 previously hydrolized, unit assumed
[31] = test system: Staph. aureus SS 08; type: cell-based; settings: Brain Heart Infusion, estolate and RV11-RV15 previously hydrolized, unit assumed
[32] = test system: E. aerogenes SS 011; type: cell-based; settings: Brain Heart Infusion, estolate and RV11-RV15 previously hydrolized, unit assumed
[33] = test system: Kl. pneumoniae SS 04; type: cell-based; settings: Brain Heart Infusion, estolate and RV11-RV15 previously hydrolized, unit assumed
Text: (§1) In the following table I the MIC/ml values are indicated corresponding to the lowest concentration capable of inducing a complete inhibition of the bacterial development.

[34] = test system: H. tubercolosis SS 03; type: cell-based; settings: Brain Heart Infusion, estolate and RV11-RV15 previously hydrolized, unit assumed
Text: as §1

[35] = test system: Staph. aureus SS 07; type: cell-based; settings: Brain Heart Infusion, estolate and RV11-RV15 previously hydrolized, unit assumed
[36] = test system: E. cloacae SS 07; type: cell-based; settings: Brain Heart Infusion, estolate and RV11-RV15 previously hydrolized, unit assumed
[37] = test system: H. influentiae SS 02; type: cell-based; settings: Brain Heart Infusion, estolate and RV11-RV15 previously hydrolized, unit assumed
[38] = Histological examination of bronchi after SO2 inhalation; type: in vivo, Sprague Dawley male rats; settings: oral, 500 mg/kg
[39] = test system: Strept. haemolyticus SS 17; type: cell-based; settings: Brain Heart Infusion, estolate and RV11-RV15 previously hydrolized, unit assumed
[40] = Acute toxicity; type: in vivo; settings: mouse, in vivo, po, 14400 min
Protocol: The acute toxicity was assessed in Swiss white mice by oral and intravenous route. The LD50 values have been calculated by the methods of Probits, starting from the mortality recorded 10 days after the treatment.

[41] = test system: Staph. albus SS 04; type: cell-based; settings: Brain Heart Infusion, estolate and RV11-RV15 previously hydrolized, unit assumed
[42] = test system: Sr. marcescens SS 03; type: cell-based; settings: Brain Heart Infusion, estolate and RV11-RV15 previously hydrolized, unit assumed
[43] = test system: Cl. tetani SS 17; type: cell-based; settings: Brain Heart Infusion, estolate and RV11-RV15 previously hydrolized, unit assumed
[44] = test system: N. gonorreae SS 27; type: cell-based; settings: Brain Heart Infusion, estolate and RV11-RV15 previously hydrolized, unit assumed
[45] = Mucolytic activity: obstruction of the bronchial tract after SO2 inhalation; type: in vivo, Sprague Dawley male rats; settings: oral, 500 mg/kg; SO2, 15 days
[46] = test system: N. meningitidis SS 04; type: cell-based; settings: Brain Heart Infusion, estolate and RV11-RV15 previously hydrolized, unit assumed
[47] = test system: Pr. vulgaris SS 10; type: cell-based; settings: Brain Heart Infusion, estolate and RV11-RV15 previously hydrolized, unit assumed

## CCC(=O)O[C@H]1[C@H](O[C@@H]2[C@@H](C)[C@H](O[C@H]3C[C@@](C)(OC)[C@@H](O)[C@H](C)O3)[C@@H](C)C(=O)O[C@H](CC)[C@@](C)(O)[C@H](O)[C@@H](C)C(=O)[C@H](C)C[C@@]2(C)O)O[C@H](C)C[C@@H]1N(C)C [RV14, erythromycin-monopropionate-S-carboxymethyl cysteinate]
[1]
  MIC: 0.05 µg/mL (≈ 0.0633 µM)
[2]; 0.30 hours, 18 min
  Hematic levels in the healthy volunteer: 1.20 µg/mL
[2]; 1 hour, 60 min
  Hematic levels in the healthy volunteer: 1.78 µg/mL
[2]; 2 hours, 120 min
  Hematic levels in the healthy volunteer: 2.28 µg/mL
[2]; 3 hours, 180 min
  Hematic levels in the healthy volunteer: 1.60 µg/mL
[2]; 4 hours, 240 min
  Hematic levels in the healthy volunteer: 1.21 µg/mL
[3]
  MIC: 100 µg/mL (≈ 127 µM)
[4]
  MIC: 0.05 µg/mL (≈ 0.0633 µM)
[5]
  ED50 (reliability limits): 123.74 (148.77-102.92) mg/kg
[6]
  MIC: > 200 µg/mL
[7]
  MIC: > 200 µg/mL
[8]
  MIC: 0.4 µg/mL (≈ 0.506 µM)
[9]
  MIC: 100 µg/mL (≈ 127 µM)
[10]
  MIC: 200 µg/mL (≈ 253 µM)
[11]
  MIC: 100 µg/mL (≈ 127 µM)
[12]
  MIC: 0.4 µg/mL (≈ 0.506 µM)
[13]
  MIC: 0.01 µg/mL (≈ 0.0127 µM)
[14]
  MIC: 0.1 µg/mL (≈ 0.127 µM)
[15]
  MIC: 0.1 µg/mL (≈ 0.127 µM)
[16]; 0.3 h
  Hematic levels in the rat: 0.72 µg/mL
[16]; 1 h
  Hematic levels in the rat: 1.85 µg/mL
[16]; 2 h
  Hematic levels in the rat: 2.55 µg/mL
[16]; 3 h
  Hematic levels in the rat: 1.39 µg/mL
[16]; 4 h
  Hematic levels in the rat: 0.65 µg/mL
[16]; 5 h
  Hematic levels in the rat: 0.54 µg/mL
[16]; 6 h
  Hematic levels in the rat: 0.07 µg/mL
[16]; rat
  absorption by oral route (in words): absorbed by oral route in a rate practically analogous to that of erythromycin estolate
[17]
  MIC: 50 µg/mL (≈ 63.3 µM)
[18]
  MIC: 0.05 µg/mL (≈ 0.0633 µM)
[19]
  MIC: > 200 µg/mL
[20]
  MIC: 100 µg/mL (≈ 127 µM)
[21]
  MIC: 0.4 µg/mL (≈ 0.506 µM)
[22]
  MIC: 12 µg/mL (≈ 15.2 µM)
[23]
  MIC: 100 µg/mL (≈ 127 µM)
[24]
  MIC: 0.8 µg/mL (≈ 1.01 µM)
[25]
  MIC: 0.025 µg/mL (≈ 0.0316 µM)
[26]
  MIC: 0.01 µg/mL (≈ 0.0127 µM)
[27]
  MIC: 3 µg/mL (≈ 3.8 µM)
[28]
  MIC: 25 µg/mL (≈ 31.6 µM)
[29]
  MIC: 50 µg/mL (≈ 63.3 µM)
[30]
  MIC: 0.8 µg/mL (≈ 1.01 µM)
[31]
  MIC: 0.05 µg/mL (≈ 0.0633 µM)
[32]
  MIC: 50 µg/mL (≈ 63.3 µM)
[33]
  MIC: 100 µg/mL (≈ 127 µM)
[34]
  MIC: 50 µg/mL (≈ 63.3 µM)
[35]
  MIC: 0.025 µg/mL (≈ 0.0316 µM)
[36]
  MIC: > 200 µg/mL
[37]
  MIC: 1.5 µg/mL (≈ 1.9 µM)
[38]; free non obstructed
  histological appearance of non obstructed bronchi: presence of bronchi having almost normal appearance
[38]; obstructed
  histological appearance of obstructed bronchial tract: fully like that of the control animals
[39]
  MIC: 1.5 µg/mL (≈ 1.9 µM)
[40]
  LD50 (reliability limits): 3000 mg·kg
[41]
  MIC: 0.05 µg/mL (≈ 0.0633 µM)
[42]
  MIC: 200 µg/mL (≈ 253 µM)
[43]
  MIC: 0.2 µg/mL (≈ 0.253 µM)
[44]
  MIC: 0.8 µg/mL (≈ 1.01 µM)
[45]
  Partial obstruction (% incidence): 13.33%
  Total obstruction, compact plug (% incidence): 26.66%
  Total obstruction, nodular mass (% incidence): 6.66%
  Total obstruction, pimply mass (% incidence): 6.66%
[46]
  MIC: 0.8 µg/mL (≈ 1.01 µM)
[47]
  MIC: > 200 µg/mL
